Measurements reported in ChEMBL document CHEMBL1201862, “PubChem BioAssay data set” (2004).
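Protocol summary: plate cells (96-well), add compound at 5 concentrations, incubate 48 h, interpolate endpoints linearly. Abbreviation: GI50, concentration required for 50% inhibition of growth.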 The source made the active and inactive calls. No stated cut-off is given here; in the data, active = GI50 up to about 1.1 µM and inactive = higher.

Tests used:
Assay in all cases: NCI anticancer screen, dose series, 48 h
CCRF-CEM = tested on: CCRF-CEM
A498 = tested on: A498
UACC-257 = tested on: UACC-257
M14 = tested on: M14
OVCAR-5 = tested on: OVCAR-5
KM-20L2 = tested on: KM-20L2
SK-MEL-2 = tested on: SK-MEL-2
OVCAR-8 = tested on: OVCAR-8
NCI-H226 = tested on: NCI-H226
A549 = tested on: A549
NCI-H23 = tested on: NCI-H23
ACHN = tested on: ACHN
NCI-H522 = tested on: NCI-H522
IGROV-1 = tested on: IGROV-1
SK-MEL-5 = tested on: SK-MEL-5
KM12 = tested on: KM12
Hs-578T = tested on: Hs-578T
BT-549 = tested on: BT-549
SR = tested on: SR
PC-3 = tested on: PC-3

Measured: GI50

COC(=O)NN1C(C)=C(C(=O)OC)C2(C#N)C(C(=O)OC)=C(C)N(NC(=O)OC)C12N (configuration not stated)
inactive: CCRF-CEM > 100 µM | A498 > 100 µM | UACC-257 > 100 µM | M14 > 100 µM | OVCAR-5 > 100 µM | KM-20L2 > 100 µM | SK-MEL-2 > 100 µM | OVCAR-8 > 100 µM | NCI-H226 > 100 µM | A549 > 100 µM | NCI-H23 > 100 µM | ACHN > 100 µM | NCI-H522 > 100 µM | IGROV-1 > 100 µM

CCNC(=O)O/N=C1/C=C2CC[C@@H]3C(CC[C@@]4(C)C3CC[C@@H]4OC(=O)NCC)[C@@]2(C)CC1 (some centres not stated)
inactive: SK-MEL-5 3.44 µM | A498 > 100 µM | UACC-257 2.24 µM | KM12 2.54 µM | M14 2.96 µM | OVCAR-5 6.78 µM | KM-20L2 2.28 µM | SK-MEL-2 2.21 µM | OVCAR-8 4.32 µM | A549 3.98 µM | NCI-H23 3.07 µM | ACHN 2.75 µM | NCI-H522 1.95 µM | IGROV-1 7.5 µM

C[C@@H]1[C@@H](C)C(c2ccccc2)O[Si]1(C(C)(C)C)C(C)(C)C (some centres not stated)
inactive: CCRF-CEM 18.9 µM | Hs-578T 20.9 µM | SK-MEL-5 17.4 µM | A498 16.6 µM | UACC-257 17.1 µM | BT-549 24.4 µM | SR 11.8 µM | KM12 16.3 µM | PC-3 17.1 µM | M14 18.2 µM | OVCAR-5 17.6 µM | SK-MEL-2 15.8 µM | OVCAR-8 17.8 µM | NCI-H226 18.1 µM | A549 16.6 µM | NCI-H23 15.6 µM | ACHN 17.7 µM | NCI-H522 15.1 µM | IGROV-1 16.7 µM

N=C(N)N/N=C(/CCN1CCCC1)CC(c1ccccc1)c1c(O)c2ccccc2oc1=O (configuration not stated)
inactive: CCRF-CEM > 10 µM | UACC-257 > 100 µM | M14 > 100 µM | KM-20L2 > 100 µM | SK-MEL-2 > 100 µM | NCI-H226 > 100 µM | A549 > 100 µM | NCI-H23 > 100 µM | ACHN > 100 µM | NCI-H522 > 100 µM | IGROV-1 > 100 µM

Cc1[nH]c2ccccc2c1CC/C(=N\Nc1ccccc1)c1ccccc1
inactive: CCRF-CEM > 100 µM | SK-MEL-5 > 100 µM | A498 > 100 µM | UACC-257 > 100 µM | KM12 > 100 µM | M14 > 100 µM | OVCAR-5 > 100 µM | KM-20L2 > 100 µM | SK-MEL-2 > 100 µM | OVCAR-8 > 100 µM | NCI-H226 > 100 µM | A549 > 100 µM | NCI-H23 > 100 µM | ACHN > 100 µM | IGROV-1 > 100 µM

CCOC(=O)/C(=C/c1ccc(OC)c(OC)c1)C(=O)c1ccccc1
inactive: CCRF-CEM 9.64 µM | SK-MEL-5 14.3 µM | A498 22.3 µM | UACC-257 15.1 µM | KM12 14.9 µM | M14 13.9 µM | OVCAR-5 17.5 µM | KM-20L2 18.4 µM | SK-MEL-2 38.5 µM | OVCAR-8 22.3 µM | A549 28.2 µM | NCI-H23 17.7 µM | ACHN 27.9 µM | NCI-H522 13.9 µM | IGROV-1 20.2 µM

CC(=O)NC1=CC(=O)C=C(Cl)C1=O
inactive: CCRF-CEM 22.9 µM | Hs-578T > 100 µM | SK-MEL-5 > 100 µM | A498 > 100 µM | UACC-257 54.1 µM | BT-549 > 100 µM | SR 22.4 µM | KM12 > 100 µM | PC-3 > 100 µM | M14 42.3 µM | OVCAR-5 > 100 µM | SK-MEL-2 59.8 µM | OVCAR-8 > 100 µM | NCI-H226 > 100 µM | A549 > 100 µM | NCI-H23 43.9 µM | ACHN > 100 µM | NCI-H522 28.9 µM | IGROV-1 > 100 µM

Cc1ccc(CCCCCOc2ccc(C3=NCCO3)cc2)s1
inactive: CCRF-CEM > 100 µM | Hs-578T > 100 µM | SK-MEL-5 > 100 µM | A498 1.81 µM | UACC-257 > 100 µM | BT-549 > 100 µM | SR 2.84 µM | KM12 > 100 µM | PC-3 > 100 µM | M14 > 100 µM | OVCAR-5 > 100 µM | SK-MEL-2 > 100 µM | OVCAR-8 > 100 µM | NCI-H226 > 100 µM | A549 > 100 µM | NCI-H23 > 100 µM | ACHN > 100 µM | NCI-H522 > 100 µM | IGROV-1 > 100 µM

CCOC(=O)c1nc2cc(N3CCOCC3)c(F)cc2[nH]c1=O
inactive: CCRF-CEM 91.8 µM | Hs-578T 33.4 µM | SK-MEL-5 > 100 µM | A498 > 100 µM | UACC-257 > 100 µM | BT-549 > 100 µM | SR 54.2 µM | KM12 > 100 µM | PC-3 > 100 µM | M14 > 100 µM | OVCAR-5 64.3 µM | SK-MEL-2 > 100 µM | OVCAR-8 86.9 µM | NCI-H226 20.3 µM | A549 > 100 µM | NCI-H23 > 100 µM | ACHN > 100 µM | NCI-H522 67.9 µM | IGROV-1 39 µM

CCOc1ccc(NC(=O)/C=C/c2ccco2)cc1
inactive: CCRF-CEM 34.8 µM | Hs-578T 65 µM | SK-MEL-5 44.3 µM | A498 42.7 µM | UACC-257 72.9 µM | BT-549 38 µM | SR 28.8 µM | KM12 30.5 µM | PC-3 35.6 µM | M14 58.2 µM | OVCAR-5 > 100 µM | SK-MEL-2 > 100 µM | OVCAR-8 85.9 µM | NCI-H226 86.9 µM | A549 > 100 µM | NCI-H23 > 100 µM | ACHN > 100 µM | NCI-H522 > 100 µM | IGROV-1 > 100 µM

COc1cc2c(cc1OC)C(Cc1ccccc1CCCl)=NCC2
inactive: CCRF-CEM 58.7 µM | Hs-578T 73.5 µM | SK-MEL-5 22.5 µM | A498 > 100 µM | UACC-257 50.8 µM | BT-549 40.3 µM | SR 84.1 µM | KM12 36.8 µM | PC-3 31.1 µM | M14 38.1 µM | OVCAR-5 > 100 µM | SK-MEL-2 > 100 µM | OVCAR-8 47.2 µM | NCI-H226 31.3 µM | A549 57.9 µM | NCI-H23 22 µM | ACHN 73.3 µM | NCI-H522 15.9 µM | IGROV-1 27 µM

Cc1ccc(/N=N/c2c(O)c(C(=O)O)cc3ccccc23)c(S(=O)(=O)O)c1
inactive: CCRF-CEM > 100 µM | Hs-578T > 100 µM | SK-MEL-5 > 100 µM | A498 > 100 µM | UACC-257 > 100 µM | BT-549 > 100 µM | SR > 100 µM | KM12 > 100 µM | PC-3 > 100 µM | M14 > 100 µM | OVCAR-5 > 100 µM | SK-MEL-2 > 100 µM | OVCAR-8 > 100 µM | NCI-H226 > 100 µM | A549 > 100 µM | NCI-H23 > 100 µM | ACHN > 100 µM | NCI-H522 > 100 µM | IGROV-1 > 100 µM
